Results: patent US20220193163A1, “COMPOSITION COMPRISING ACTINIDIA POLYGAMA EXTRACT FOR ALLEVIATING SKIN DAMAGE OR MOISTURIZING SKIN” (G&P BIOSCIENCE CO., LTD., priority 2019, published 2022)

Tests used:
[1] = DPPH radical-scavenging ability; format: biochemical
Procedure: DPPH [[…]] is a free-radical compound. […] Accordingly, antioxidant activity can be compared from the ratio of decolorized DPPH radicals. After mixing 50 μL of a 0.36 mM DPPH solution and 50 μL of a test substance dissolved in ethanol at 1:1 and conducting reaction at room temperature in the dark for 30 minutes, absorbance was measured at 540 nm. The DPPH radical-scavenging ability of Example 1, Comparative Example 1 and Comparative Example 2 of different darae species at different concentrations was calculated from the measured absorbance.

[2] = ABTS radical-scavenging ability; format: biochemical
Procedure: After dissolving 7.4 mM 2,2-azino-bis(3-ethylbenzthiazoline-6-sulfonic acid) and 2.6 mM potassium persulfate respectively in distilled water and mixing at 1:1, ABTS^+ is formed by conducting reaction at room temperature in the dark for 24 hours. 24 hours later, the ABTS solution was diluted to purified water to adjust absorbance at 732 nm to 0.7. Then, after adding 10 μL of a test substance to 190 μL of the ABTS solution and conducting reaction in the dark for 10 minutes, absorbance was measured at 732 nm. The ABTS radical-scavenging ability of Example 1, Comparative Example 1 and Comparative Example 2 of different darae species at different concentrations was calculated from the measured absorbance.

| Structure (SMILES) | DPPH radical-scavenging ability IC50 [1] | ABTS radical-scavenging ability IC50 [2] |
| --- | --- | --- |
| O=C1O[C@H]([C@@H](O)CO)C(O)=C1O [L-Ascorbic acid] | 30 ± 10 µg/mL | – |
| Cc1c(C)c2c(c(C)c1O)CCC(C)(C(=O)O)O2 (centres unmarked) [Trolox] | – | 100 ± 10 µg/mL |
